Consider 9 compounds from patent US5980939A, “Cyclosporin-containing pharmaceutical composition” (Chong Kun Dang Corp., priority 1996, dated 1999).

Data set [1] is described as follows: Experiment 3: permeability of hydrophilic cosurfactant to the gelatin shell, content in soft capsule in course of time. The format is physicochemical. To be noted: for Change of the content of hydrophilic cosurfactant: solvent:Cremophor RH40 3:7 in soft capsule. From the text: Propylene glycol which contains --OH group in its molecular structure and therefore has high hygroscopic and hydrophilic properties is distributed in the capsule shell according to the movement of water present in the contents and gelatin capsule during encapsulation and drying procedures and therefore, is permeated to the capsule shell in course of time. According to this, since the constitutional ratio of the contents is greately varied at the early stage, of manufacturing procedures of the capsule preparation, the stability of the preparation cannot be ensured and further the reliable therapeutic effect cannot be obtained. […] Hereinafter, the permeability to the gelatin shell of the hydrophilic cosurfactant used in the soft capsule according to the present invention was determined and compared with the shell permeability of propylene glycol, transcutol, glycofurol or dimethylisosorbide used as the hydrophilic cosurfactant in the soft capsule according to the prior art. The content of each solvent in each soft capsule preparation was analyzed by gas chromatography and HPLC. […] At regular intervals, the constant amount of the sample was taken and then analyzed.
Column: Ultra 2; Column temperature: 23° C.; Detector: FID; Detector temperature: 270° C.; Injection temperature: 275° C.; Carrier gas: He; Injection volume: 5 μl; Internal standard: octyl alcohol
Column: 10% PEG 20M; Column temperature: 160° C.; Detector: FID; Injection temperature: 200° C.; Carrier gas: N2; Injection volume: 1 μl; Internal standard: pentadecanoic acid methyl ester
Column: Ultra 2; Column temperature: 230° C.; Detector: FID; Detector temperature: 270° C.; Injection temperature: 270° C.; Carrier gas: He; Injection volume: 5 μl; Internal standard: pentadecanoic acid methyl ester

The test system of data set [2] is rat. The following applies: per oral; cited from earlier work.
The test system of data set [3] is mouse. The following applies: intravenous injection; cited from earlier work.
For data set [4] the following is noted: species and route not given; cited from earlier work.
Data set [5] can be described thus: Experiment 1: reactivity of hydrophilic cosurfactant with the gelatin shell by thermoanalyzer (DSC/DDSC). Type of data set: physicochemical. The following applies: soft gelatin capsule filled with solvent, stored at room temperature, 3 months. The method, then: Test for the reactivity of the hydrophilic cosurfactant according to the present invention with the gelatin shell in comparison to the reactivity of the solvents used in the prior art using a thermoanalyzer: The reactivities of the hydrophilic cosurfactant used according to the present invention and propylene glycol used as the hydrophilic cosurfactant in the prior preparation with the gelatin shell were determined using a thermoanalyzer. Each of the hydrophilic cosurfactants and mineral oil as the control solvent was filled in the soft gelatin capsule. The filled capsule was stored at room temperature. At regular intervals, the capsules were cut open by a sharp open blade, and the contents were removed by washing with ether and then about 20 mg of gelatin shell was accurately weighed and analyzed. The programed heating rate was 10° C./minute under nitrogen purge from 25 °C. to 300° C.

As to `CO[C@H]1CO[C@H]2[C@@H]1OC[C@H]2OC` [Dimethylisosorbide, 1,4:3,6-dianhydro-2,5-dimethyl-D-glucitol], the “Change of the content of hydrophilic cosurfactant” value (from here on “Change”) in data set [1] (day 0) came out at 30.0 wt %; in data set [1] (day 5) it was 28.2 wt %; in data set [1] (day 15), 29.1 wt %; in data set [1] (day 30), 28.7 wt %; in data set [1] (day 60), 28.0 wt %; in data set [1] (day 90), 26.6 wt %. The “Change” value in data set [1] (day 120) came to 25.8 wt %. Besides, in data set [2], the LD50 was 5.63 mL/kg.

With “tetrahydrofurfurylalcohol polyethylene glycol [Glycofurol]”, the “Change” value is recorded as 30.0 wt % in data set [1] (day 0); 24.4 wt % in data set [1] (day 5); 21.0 wt % in data set [1] (day 15); 23.5 wt % in data set [1] (day 30); 21.0 wt % in data set [1] (day 60); 20.7 wt % in data set [1] (day 90). The “Change” value in data set [1] (day 120) worked out at 20.4 wt %. Also, the LD50 in data set [3] was 3.5 mL/kg.

Regarding `CC1COC(=O)O1` (racemic) [Propylene carbonate, (±)-4-methyl-1,3-dioxolan-2-one], the “stability of the cosurfactant content in soft capsule (in words)” value in data set [1] is “at least comparable stability to dimethylisosorbide and is more stable than propylene glycol, transcutol and glycofurol”. The “Change” value was found to be 30.1 wt % in data set [1] (day 0); 29.8 wt % in data set [1] (day 5); 28.6 wt % in data set [1] (day 15); 28.4 wt % in data set [1] (day 30); 28.7 wt % in data set [1] (day 60); 27.4 wt % in data set [1] (day 90). For the same compound, the “Change” value in data set [1] (day 120) is 28.0 wt %. Besides, the LD50 in data set [4] is given as 29 g/kg.

Consider `CC#N` [acetonitrile], for which, in data set [2], the LD50 is 3.8 g/kg.

On to `CC(C)=O` [acetone], for which the LD50 in data set [2] was 10.7 mL/kg.

On to `CC(O)CO` (stereo not drawn) [Propylene glycol, 1,2-propylene glycol], for which, in data set [5], the “DSC/DDSC pattern of gelatin shell versus shell of capsule filled with mineral oil” value is recorded as “shows a new peak”. In addition, the “Change” value is reported as 29.9 wt % in data set [1] (day 0); 21.9 wt % in data set [1] (day 5); 22.8 wt % in data set [1] (day 15); 21.0 wt % in data set [1] (day 30); 22.4 wt % in data set [1] (day 60); 21.5 wt % in data set [1] (day 90). Moreover, the “Change” value in data set [1] (day 120) came to 19.5 wt %. For the same compound, in data set [2], the LD50 is 21 to 33.7 g/kg.

Consider `c1ccccc1` [benzene], for which the LD50 in data set [2] was 3.8 mL/kg.

As to `CC(C)O` [isopropanol], in data set [2], the LD50 was 5.8 g/kg.

As to `CCOCCOCCO` [Transcutol, diethyleneglycol monoethyl ether], the “Change” value in data set [1] (day 0) came out at 30.1 wt %; in data set [1] (day 5) it was 22.1 wt %; in data set [1] (day 15), 23.1 wt %; in data set [1] (day 30), 21.9 wt %; in data set [1] (day 60), 22.1 wt %; in data set [1] (day 90), 21.7 wt %. For the same compound, the “Change” value in data set [1] (day 120) is 20.3 wt %.
